In brackets after ≈: the same amount, converted by molar mass.
test system: PBP1, PBP2 and PBP3; test: not given; format: binding, Neisseria gonorrhoeae ATCC 49226; conditions: strain ATCC 49226

Compound `CC1(C)[C@H](C(=O)O)N2C(=O)C[C@H]2S1(=O)=O` [SUL, sulbactam] has a min. IC50 (minimum observed IC50 value) of 6.02 µg/mL.

target: T1, PBP1, PBP2 and PBP3 (Neisseria gonorrhoeae, UniProt Q5FAB9); test: not given; format: binding, Neisseria gonorrhoeae ATCC 49226; conditions: read-out: min. IC50 (minimum observed IC50 value); strain ATCC 49226
T1 sequence (Q5FAB9 22-469): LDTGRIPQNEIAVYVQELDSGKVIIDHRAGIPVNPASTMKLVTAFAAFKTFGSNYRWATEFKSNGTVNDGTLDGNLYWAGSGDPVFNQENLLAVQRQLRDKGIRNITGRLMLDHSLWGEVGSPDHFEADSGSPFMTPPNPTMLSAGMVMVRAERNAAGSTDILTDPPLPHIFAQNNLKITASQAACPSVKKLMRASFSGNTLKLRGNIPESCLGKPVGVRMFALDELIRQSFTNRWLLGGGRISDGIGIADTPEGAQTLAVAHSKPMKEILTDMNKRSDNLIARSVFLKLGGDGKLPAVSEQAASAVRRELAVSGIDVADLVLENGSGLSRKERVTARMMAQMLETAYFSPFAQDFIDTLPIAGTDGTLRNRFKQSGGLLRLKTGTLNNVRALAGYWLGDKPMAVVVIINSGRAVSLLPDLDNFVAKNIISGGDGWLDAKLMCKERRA

In order of falling IC50:
1. NC(=O)[C@@H]1CC[C@@H]2CN1C(=O)N2OS(=O)(=O)O [AVI, avibactam]  20.4 µM
2. CC1(C)S[C@@H]2[C@H](NC(=O)Cc3ccccc3)C(=O)N2[C@H]1C(=O)O [PenG, penicillin G]  0.0299 µM

test system: N. gonorrhoeae ATCC 49226; test: MIC, CLSI broth microdilution; format: cell-based, Neisseria gonorrhoeae; conditions: Neisseria gonorrhoeae, ATCC49226

Going from `NC(=O)[C@@H]1CC[C@@H]2CN1C(=O)N2OS(=O)(=O)O` [AVI, avibactam] to `CC1(C)[C@H](C(=O)O)N2C(=O)C[C@H]2S1(=O)=O` [SUL, sulbactam], the MIC falls from over 256 µg/mL to 4 µg/mL (≈ 17.1 µM).

same assay, conditions: Neisseria gonorrhoeae, ATCC49226, read-out: MIC (Table S1)

In order of rising MIC:
1. CC1(C)[C@H](C(=O)O)N2C(=O)C[C@H]2S1(=O)=O [SUL, sulbactam]  4 µg/mL (≈ 17.1 µM)
2. NC(=O)[C@@H]1CC[C@@H]2CN1C(=O)N2OS(=O)(=O)O [AVI, avibactam]  512 µg/mL (≈ 1930 µM)

same assay, conditions: Neisseria gonorrhoeae, ATCC49226; strain ATCC 49226; read-out: MIC

`CC1(C)S[C@@H]2[C@H](NC(=O)Cc3ccccc3)C(=O)N2[C@H]1C(=O)O` [PenG, penicillin G] gave an MIC of 0.125 µg/mL (≈ 0.374 µM).

same assay, conditions: Neisseria gonorrhoeae, ATCC49226; strain ATCC 49226; read-out: MIC (Table S1)

For `CC1(C)S[C@@H]2[C@H](NC(=O)Cc3ccccc3)C(=O)N2[C@H]1C(=O)O` [PenG, penicillin G], the MIC was 0.125 µg/mL (≈ 0.374 µM).

target: T2, PBP3 (Neisseria gonorrhoeae, UniProt Q5FAB9); test: not given; conditions: read-out: IC50 PBP3; strain ATCC 19424; membrane preparation, 30 min drug then Bocillin FL
T2 sequence (Q5FAB9 22-469): T1 sequence (Q5FAB9 22-469)

In order of falling IC50:
1. CC1(C)[C@H](C(=O)O)N2C(=O)C[C@H]2S1(=O)=O [SUL, sulbactam]  39.9 µM
2. NC(=O)[C@@H]1CC[C@@H]2CN1C(=O)N2OS(=O)(=O)O [AVI, avibactam]  8.78 µM
3. CC1(C)S[C@@H]2[C@H](NC(=O)Cc3ccccc3)C(=O)N2[C@H]1C(=O)O [PenG, penicillin G]  0.0598 µM

test system: N. gonorrhoeae ATCC 19424; test: MIC, CLSI broth microdilution; format: cell-based; conditions: Neisseria gonorrhoeae, ATCC19424

`CC1(C)[C@H](C(=O)O)N2C(=O)C[C@H]2S1(=O)=O` [SUL, sulbactam] was tested, and the MIC was 0.25 µg/mL (≈ 1.07 µM).

same assay, conditions: Neisseria gonorrhoeae, ATCC19424, read-out: MIC (Table S1)

`CC1(C)[C@H](C(=O)O)N2C(=O)C[C@H]2S1(=O)=O` [SUL, sulbactam] was tested, and the MIC was 0.25 µg/mL (≈ 1.07 µM).

same assay, conditions: Neisseria gonorrhoeae, ATCC19424; strain ATCC 19424; read-out: MIC

In the case of `CC1(C)S[C@@H]2[C@H](NC(=O)Cc3ccccc3)C(=O)N2[C@H]1C(=O)O` [PenG, penicillin G], the MIC is reported as 0.064 µg/mL (≈ 0.191 µM).

same assay, conditions: Neisseria gonorrhoeae, ATCC19424; strain ATCC 19424; read-out: MIC (Table S1)

In order of falling MIC:
1. NC(=O)[C@@H]1CC[C@@H]2CN1C(=O)N2OS(=O)(=O)O [AVI, avibactam]  128 µg/mL (≈ 483 µM)
2. CC1(C)S[C@@H]2[C@H](NC(=O)Cc3ccccc3)C(=O)N2[C@H]1C(=O)O [PenG, penicillin G]  0.063 µg/mL (≈ 0.188 µM)

target: T2, PBP3; test: not given; conditions: read-out: IC50 PBP3; strain ATCC 49226; membrane preparation, 30 min drug then Bocillin FL

In order of rising IC50:
1. CC1(C)S[C@@H]2[C@H](NC(=O)Cc3ccccc3)C(=O)N2[C@H]1C(=O)O [PenG, penicillin G]  0.0299 µM
2. NC(=O)[C@@H]1CC[C@@H]2CN1C(=O)N2OS(=O)(=O)O [AVI, avibactam]  20.4 µM
3. CC1(C)[C@H](C(=O)O)N2C(=O)C[C@H]2S1(=O)=O [SUL, sulbactam]  27.3 µM

target: T3, PBP2 (Neisseria gonorrhoeae, UniProt P08149, A510V/A516G/A574V/F504L/H541N/I556V/I566V/K555Q/P552V); test: biochemical; format: binding, Neisseria gonorrhoeae ATCC 49226; conditions: IC50 PBP2 (Table S1), strain ATCC 49226
T3 construct: endogenous in cells; host or cells: N. gonorrhoeae ATCC 49226, isolated membrane preparation

Work on `NC(=O)[C@@H]1CC[C@@H]2CN1C(=O)N2OS(=O)(=O)O` [AVI, avibactam] yielded an IC50 of over 1930 µM.

same assay, conditions: IC50 PBP2, strain ATCC 49226; membrane preparation, 30 min drug then Bocillin FL

Going from `NC(=O)[C@@H]1CC[C@@H]2CN1C(=O)N2OS(=O)(=O)O` [AVI, avibactam] to `CC1(C)[C@H](C(=O)O)N2C(=O)C[C@H]2S1(=O)=O` [SUL, sulbactam], the IC50 falls from over 965 µM to 25.8 µM. The second is the more potent here.

Compound `CC1(C)S[C@@H]2[C@H](NC(=O)Cc3ccccc3)C(=O)N2[C@H]1C(=O)O` [PenG, penicillin G] has an IC50 of 0.778 µM.

target: T4, PBP1 (Neisseria gonorrhoeae, UniProt O05131); test: PBP-binding assay (Bocillin FL) in isolated membrane preparations; conditions: strain ATCC 19424; membrane preparation, 30 min drug then Bocillin FL; read-out: IC50 PBP1 (converted)
T4 construct: endogenous in cells; host or cells: N. gonorrhoeae ATCC 19424, isolated membrane preparation
From the text: (§1) Bacterial membranes were collected by ultracentrifugation.

Compared with `NC(=O)[C@@H]1CC[C@@H]2CN1C(=O)N2OS(=O)(=O)O` [AVI, avibactam], `CC1(C)[C@H](C(=O)O)N2C(=O)C[C@H]2S1(=O)=O` [SUL, sulbactam] is lower in IC50: over 1930 µM for the first, 236 µM for the second.

In the case of `CC1(C)S[C@@H]2[C@H](NC(=O)Cc3ccccc3)C(=O)N2[C@H]1C(=O)O` [PenG, penicillin G], the IC50 is reported as 5.65 µM.

same assay, conditions: strain ATCC 19424; read-out: IC50 PBP1 (Table S1) (converted)

`CC1(C)[C@H](C(=O)O)N2C(=O)C[C@H]2S1(=O)=O` [SUL, sulbactam] gave an IC50 of 238 µM.

target: T5, PBP1 (Neisseria gonorrhoeae, UniProt O05131, A375T/F666S); test: as above; set-up: species or system Neisseria gonorrhoeae ATCC 49226; conditions: IC50 PBP1 (Table S1), strain ATCC 49226
T5 construct: endogenous in cells; host or cells: N. gonorrhoeae ATCC 49226, isolated membrane preparation
From the text: as §1

Compared with `NC(=O)[C@@H]1CC[C@@H]2CN1C(=O)N2OS(=O)(=O)O` [AVI, avibactam], `CC1(C)[C@H](C(=O)O)N2C(=O)C[C@H]2S1(=O)=O` [SUL, sulbactam] is lower in IC50: over 1930 µM for the first, 871 µM for the second. The second is the more potent here.

same assay, conditions: IC50 PBP1, strain ATCC 49226; membrane preparation, 30 min drug then Bocillin FL

Going from `NC(=O)[C@@H]1CC[C@@H]2CN1C(=O)N2OS(=O)(=O)O` [AVI, avibactam] to `CC1(C)[C@H](C(=O)O)N2C(=O)C[C@H]2S1(=O)=O` [SUL, sulbactam], the IC50 falls from over 965 µM to 870 µM. The second is the more potent here.

Work on `CC1(C)S[C@@H]2[C@H](NC(=O)Cc3ccccc3)C(=O)N2[C@H]1C(=O)O` [PenG, penicillin G] yielded an IC50 of over 5.98 µM.

target: T6, PBP2 (Neisseria gonorrhoeae, UniProt P08149, H541N); test: as above; set-up: species or system Neisseria gonorrhoeae ATCC 19424; conditions: IC50 PBP2 (Table S1), strain ATCC 19424
T6 construct: endogenous in cells; host or cells: N. gonorrhoeae ATCC 19424, isolated membrane preparation

Compound `NC(=O)[C@@H]1CC[C@@H]2CN1C(=O)N2OS(=O)(=O)O` [AVI, avibactam] has an IC50 of 442 µM.

same assay, conditions: IC50 PBP2, strain ATCC 19424; membrane preparation, 30 min drug then Bocillin FL

In order of rising IC50:
1. CC1(C)S[C@@H]2[C@H](NC(=O)Cc3ccccc3)C(=O)N2[C@H]1C(=O)O [PenG, penicillin G]  0.15 µM
2. CC1(C)[C@H](C(=O)O)N2C(=O)C[C@H]2S1(=O)=O [SUL, sulbactam]  5.06 µM
3. NC(=O)[C@@H]1CC[C@@H]2CN1C(=O)N2OS(=O)(=O)O [AVI, avibactam]  441 µM

test system: PBP1, PBP2 and PBP3; test: not given; format: binding, Neisseria gonorrhoeae ATCC 19424; conditions: strain ATCC 19424

`CC1(C)S[C@@H]2[C@H](NC(=O)Cc3ccccc3)C(=O)N2[C@H]1C(=O)O` [PenG, penicillin G] gave a min. IC50 (minimum observed IC50 value) of 0.02 µg/mL.

target: T1, PBP1, PBP2 and PBP3; test: not given; format: binding, Neisseria gonorrhoeae ATCC 19424; conditions: read-out: min. IC50 (minimum observed IC50 value); strain ATCC 19424

Work on `NC(=O)[C@@H]1CC[C@@H]2CN1C(=O)N2OS(=O)(=O)O` [AVI, avibactam] yielded an IC50 of 8.78 µM.

target: PBP1, PBP2 and PBP3 (Neisseria gonorrhoeae, UniProt P08149, H541N); test: not given; format: binding, Neisseria gonorrhoeae ATCC 19424; conditions: read-out: min. IC50 (minimum observed IC50 value); strain ATCC 19424

Work on `CC1(C)[C@H](C(=O)O)N2C(=O)C[C@H]2S1(=O)=O` [SUL, sulbactam] yielded an IC50 of 5.06 µM.

— PMC10269775, “Penicillin-Binding Protein Occupancy Dataset for 18 β-Lactams and 4 β-Lactamase Inhibitors in Neisseria gonorrhoeae” (Microbiology Spectrum, 2023)
